Laboratory results published in patent US10617677B2, “Nuclear transport modulators and uses thereof” (Biogen MA Inc., priority 2012, dated 2020).
Entries after “also recorded” stand apart in the source; their conditions may differ.

Columns and labels:
[1] = tested on: COX-2; assay: COX-2 protein expression in HeLa cells (immunoblot); assay type: cell-based; conditions: 1 μM Compound 1 + 20 ng/ml TNFα, 24 hours
Method: HeLa cells were plated in a 6-well culture dish (5×10^5 cells/well) with EMEM medium (Lonza) supplemented with 10% heat-inactivated fetal bovine serum (Invitrogen). Two of the wells of the plate were pre-treated with 1 μM of Compound 1 for 30 minutes, at which time one of the wells was exposed to 20 ng/ml TNFα (Preprotech) for 24 hours. The other wells were treated with either 20 ng/ml TNFα or nothing for 24 hours. Following the treatment, whole-cell lysates were generated from the cells by lysis with RIPA buffer supplemented with protease and phosphatase inhibitors (Roche). Immunoblot detection of COX-2 protein was performed using an anti-COX-2 antibody (Cayman). Signal intensity for the COX-2 protein was normalized to that of beta-actin (Santa Cruz) for each sample and plotted graphically as arbitrary intensity units.

[2] = tested on: skin wounds; assay: Longitudinal full thickness skin incision wound model in C57BL mice; assay type: in vivo
Description: The effects of Compound 1 on skin wound healing were studied in a mouse longitudinal full thickness skin incision wound model. Upon arrival, animals were identified by ear tags, weighed and left to acclimate for several days before initiation of the experiment. On the day of wounding, mice were weighed and divided into 6 experimental groups with 6 animals per group, in accordance to weight differences stratified randomization. Prior to the surgical procedure, mice were anesthetized with isoflurane and the back of the animals was trimmed. Full thickness longitudinal incisions of 20 mm were performed using a standard scalpel blade on the backs of the animals (parallel to the backbone). […] At this stage, the widest area of the wound was measured to establish a baseline wound width. […] At the end of the experiment, 8 days post wounding, mice were sacrificed, wound widths were measured and biopsies of the wound area were collected and subjected to analysis. […]
As a part of a daily morphological assessment, photo-documentation was performed using a digital camera FinePix S700. […] When evaluated on the same day as treatment groups, control group wounds appeared larger in size and were covered with thick cracked scabs that exposed a non-healed wound area (observed as reddish and pink areas) both at the edges and in the middle of the wounds. […]

[3] = tested on: PMA-induced psoriasis; assay: PMA-induced psoriasis in female BALB/c mice; assay type: in vivo; conditions: 10 μM topical, daily
Method: Twenty-four (24) female BALB/c mice, aged 6 to 8 weeks with a body weight between 22 and 30 g were used. The mice were randomized into […]. The grouping of animals was as follows: Group I (Naïve; ethanol), Group II (PMA; ethanol), Group III (PMA; […] Twenty (20) μL of PMA (4 μg/20 μL of acetone) was applied topically on the upper surface of pinna of ear of all animals in Group II to Group IV. PMA was applied daily on left ear and on alternate days (M-W-F) on right ear from Day 1 to Day 9. Thirty (30) minutes after application of PMA, vehicle or standard compound (betamethasone) or Compound 2 was applied topically to the ears of animals from different groups. […] Animals were observed daily for a period of 12 days for any treatment related symptoms. Basal ear thickness was recorded in all animals (before application of PMA) using digital screw gauge at time T0 (Day 1). […] Commercially available 100% DMSO (LR Grade) and ethanol (LR Grade) were used to prepare the formulations. PMA was prepared by dissolving 10 mg of PMA in 50.0 mL of acetone. Compound 2 was prepared by dissolving 1.47 mg of Compound 2 in 300 μL of 100% DMSO.

| SMILES | COX-2 protein expression [1] | wound healing, morphological assessment ([2]; 4 or 7.5 mg/kg PO every other day, or 1 or 2.5 μM topical daily, Day 5 post-wounding) | incidence of tampering with wounds compared to vehicle treated mice ([2]; Compound 1 in PVP/Pluronic F-68 or Compound 1 in water) | anti-psoriatic activity [3] | left and right ear disease activity index (DAI) [3] | left and right ear thickness [3] |
| --- | --- | --- | --- | --- | --- | --- |
| CC(C)(C)C(=O)NNC(=O)/C=C\n1cnc(-c2cc(C(F)(F)F)cc(C(F)(F)F)c2)n1 [Compound 1, (Z)-3-(3-(3,5-bis(trifluoromethyl)phenyl)-1H-1,2,4-triazol-1-yl)-N′-pivaloylacrylohydrazide] | decreased the amount of COX-2 protein in the presence of TNFα; also recorded: does reduce the amount of TNFα induced expression of COX-2 protein; also recorded: inhibits TNFα-induced COX-2 protein expression | positive effect; also recorded: better wound healing | reduced the incidence of tampering with wounds; also recorded: prevented tampering with wounds | – | – | – |
| O=C(/C=C\n1cnc(-c2cc(C(F)(F)F)cc(C(F)(F)F)c2)n1)NNC(=O)CN1CCOCC1 [Compound 2, (Z)-3-(3-(3,5-bis(trifluoromethyl)phenyl)-1H-1,2,4-triazol-1-yl)-N′-(2-morpholinoacetyl)acrylohydrazide] | – | – | – | statistically significant anti-psoriatic activity | prominent reduction in PMA-induced increases | prominent reduction in PMA-induced increases |
